Entries after “also recorded” stand apart in the source; their conditions may differ.
Experiments:
Assay type in all cases: in vivo
[1] = test system: nutritive obesity C57 mice; assay: Weight loss experiment in nutritive obesity C57 mice; design: key to body weight of mice: body weight in g; settings: for body weight of mice: high-fat diet, orlistat 40 mg/kg, Compounds 13 and 14 80 mg/kg intragastric, x ± s, n = 6; for effect on body weight compared with Orlistat (in words) / effect on body weight (in words): nutritive obesity C57 mice; for effect on body weight compared with Orlistat (in words): 80 mg/kg vs orlistat 40 mg/kg; for effect on body weight (in words): 80 mg/kg, as compared with Model group
Excerpt: C57 mice, male, 18-20 g of body weight. The mice were randomly divided into Control group, Model group, Orlistat group, Compound 13 group and Compound 14 group, with 6 mice in each group.
(§1) appropriate amounts of orlistat, Compound 13 and Compound 14 were weighed respectively, added with 0.5% CMC-Na and grinded to dissolve.
The mice in Control group were fed with normal diet, and the other mice were fed with high-fat diet. All of the mice had free access to water. After one week of feeding, the pharmaceuticals were intragastrically administrated. The dose was 40 mg/kg body weight for orlistat, 80 mg/kg for Compounds 13 and 14. The body weight of the mice was weighed every week during the experiment which lasted for 28 days.

[2] = test system: fatty liver of the SD rats; assay: Pathological sections and grading of fatty liver of SD rats; settings: compounds 80 mg/kg, Sim 10 mg/kg, OCA 10 mg/kg
Method: 500 g of lard oil was taken, placed in a container, and heated to melt. When the temperature rose to 100° C., it was added with 200 g of cholesterol to dissolve completely, and then further added with 20 g of propylthiouracil. The resulted mixture was stirred well, and added with 500 ml of Tween 80 after dissolution, resulting in an oil phase. At the same time, 600 mL of distilled water and 400 mL of 1,2-propanediol were taken and heated to 60° C. in a water bath, then were added with 40 g of sodium deoxycholate. The resulted mixture was stirred well until realizing complete dissolution, so as to give an aqueous phase. The aqueous phase was added into the oil phase and mixed well to give a lipid emulsion. The lipid emulsion was heated in a water bath of 37° C. before intragastric administration to animals.
An appropriate amount of pharmaceutical was weighed, added with 0.5% CMC-Na, and mixed homogeneously by grinding. There are groups for Compound 01 (80 mg/kg), Compound 02 (80 mg/kg), Compound 03 (80 mg/kg), Compound 04 (80 mg/kg), Compound 05 (80 mg/kg), Compound 06 (80 mg)/kg), Compound 07 (80 mg/kg), Compound 08 (80 mg/kg), Compound 09 (80 mg/kg), Compound 10 (80 mg/kg), Compound 11 (80 mg/kg), Compound 12 (80 mg/kg), Compound 13 (80 mg/kg), Compound 14 (80 mg/kg), Compound 15 (80 mg/kg), Compound 16 (80 mg/kg), Compound 17 (80 mg/kg), Compound 18 (80 mg/kg), Compound 19 (80 mg/kg), Compound 20 (80 mg/kg), Compound 21 (80 mg/kg), and Compound 22 (80 mg/kg).
Male SD rats weighing 180-200 g were fed adaptively for 7 days. Based on body weight, 10 animals were used as control and the remaining animals were intragastrically administered with the lipid emulsion every day, 1 ml/100 g body weight for 14 days. After fasting for 12 hours, 1 mL of blood was collected from the orbits of the animals, and was determined by Hitachi Automatic Biochemical Analyzer 7080 for serum cholesterol (CHO), triglyceride (TG), low density lipoprotein (LDL-C) and high density lipoprotein (HDL-C).
The modeled rats were continued with the intragastric administration of the lipid emulsion. At the same time, the pharmaceutical-administered groups were administrated with a corresponding dose of pharmaceuticals, while the Model group was administrated with an equal volume of solvent. The pharmaceutical-administered groups were administrated with the lipid emulsion in the morning, and with the pharmaceuticals in the afternoon. The animals were measured for the body weight once a week, and were observed. After 14 days of continuous administration, 1 mL of blood was collected from the orbits, and was determined for the contents of triglyceride, cholesterol, low density lipoprotein and high density lipoprotein in blood serum.

[3] = test system: ob/ob mice; assay: Weight loss experiment in ob/ob mice; settings: for body weight of ob/ob mice: orlistat 40 mg/kg, other pharmaceuticals 80 mg/kg intragastric, x ± s, n = 6; for effect on body weight compared with Orlistat (in words) / effect on body weight (in words): ob/ob mice; for effect on body weight compared with Orlistat (in words): 80 mg/kg vs orlistat 40 mg/kg; for effect on body weight (in words): 80 mg/kg, as compared with Model group
Excerpt: […] ob/ob mice, male, 18-20 g of body weight, fed adaptively for one week before use. The mice were randomly divided into Control group, Model group, Orlistat group, Compound 13 group and Compound 14 group, with 6 mice in each group.
as §1
After feeding for one week, the mice were intragastrically administrated with the pharmaceuticals except the mice of Control group. The dose was 40 mg/kg body weight for orlistat, 80 mg/kg for the other pharmaceuticals. The body weight of the mice was weighed every week during the experiment which lasted for 28 days.

[4] = Experiment Day 0, in g (unit assumed)
[5] = Experiment Day 7, in g (unit assumed)
[6] = Experiment Day 14, in g (unit assumed)
[7] = Experiment Day 21, in g (unit assumed)

SMILES | body weight of mice [1, 4] | body weight of mice [1, 5] | body weight of mice [1, 6] | body weight of mice [1, 7] | body weight of mice ([1]; Experiment Day 28) | effect on body weight compared with Orlistat (in words) [1] | effect on body weight (in words) [1] | Pathological grading: Steatotic hepatocytes ([2]; animal 1) | Pathological grading: Steatotic hepatocytes ([2]; animal 2) | Pathological grading: Steatotic hepatocytes ([2]; animal 3) | Pathological grading: Steatotic hepatocytes ([2]; animal 4) | Pathological grading: Steatotic hepatocytes ([2]; animal 5) | body weight of ob/ob mice [3, 4] | body weight of ob/ob mice [3, 5] | body weight of ob/ob mice [3, 6] | body weight of ob/ob mice [3, 7] | body weight of ob/ob mice ([3]; Experiment Day 28) | effect on body weight compared with Orlistat (in words) [3] | effect on body weight (in words) [3] | Pathological grading: Infiltration of inflammatory cells ([2]; animal 1)
CC(=O)c1ccc(O)c(OC(=O)C(C)(C)CCCOc2cc(C)ccc2C)c1 [Compound 13] | 17.20 ± 1.92 | 19.97 ± 0.57 | 21.04 ± 0.29 | 22.14 ± 0.31 | 23.25 ± 0.26 | better effect than Orlistat | obvious effects on weight loss; also recorded: significantly decrease the body weight of the mice from Day 14 | + (25-45% of hepatocytes undergoing steatosis) | ++ (45-65% of hepatocytes undergoing steatosis) | + (25-45% of hepatocytes undergoing steatosis) | ++ (45-65% of hepatocytes undergoing steatosis) | ++ (45-65% of hepatocytes undergoing steatosis) | 20.74 ± 1.10 | 21.43 ± 0.61 | 22.10 ± 0.16 | 24.53 ± 1.76 | 26.10 ± 1.95 | better effect than Orlistat | obvious effects on weight loss; also recorded: significantly decrease the body weight of the ob/ob mice | 
CC(=O)c1ccc(O)c(OC(=O)c2cccnc2)c1 [Compound 14] | 17.21 ± 1.57 | 19.83 ± 0.71 | 20.87 ± 0.75 | 21.89 ± 0.77 | 22.92 ± 0.88 | better effect than Orlistat | obvious effects on weight loss; also recorded: significantly decrease the body weight of the mice from Day 14 | + (25-45% of hepatocytes undergoing steatosis) |  | + (25-45% of hepatocytes undergoing steatosis) | + (25-45% of hepatocytes undergoing steatosis) |  | 20.79 ± 0.39 | 21.22 ± 0.38 | 22.18 ± 0.42 | 24.10 ± 0.45 | 26.17 ± 0.86 | better effect than Orlistat | obvious effects on weight loss; also recorded: significantly decrease the body weight of the ob/ob mice | 0

Reference: patent publication US10647673B2, “Acetophenone compound, preparation method thereof, and application thereof in fatty liver prevention and treatment” (Nanjing Bioenergy Medicine Science & Technology Co., Ltd., priority 2017, dated 2020)
